Laboratory results from patent US5888995A, “Steroid esters” (priority 1991, dated 1999).
Read-outs that look alike come from different tables or passages of the source.

Experiments:
[1] = test system: Sephadex induced lung edema (lung); experiment: Unwanted systemic effect by orally absorbed glucocorticosteroid, Sephadex induced lung edema model, oral administration; type: in vivo, Sprague Dawley rats; settings: Rattus norvegicus, 20 h, in liposomes, given orally 2 h before Sephadex, dose to reduce the edema by 50%, read-out: ED50 (p.o. adm.) lung
Protocol: (§1) B) Test model for unwanted systemic effect by orally absorbed glucocorticosteroid
(§2) Sprague Dawley rats (250 g) were slightly anaesthetized with Ephrane and the GCS test preparation in a volume of 1.0 ml/kg was given orally. Two hours later a suspension of Sephadex (5 mg/kg in a volume of 1 ml/kg) was instilled in the trachea well above the bifurcation so that the suspension reached both the left and the right lung lobes. Twenty hours later, the rats were killed and the lung lobes were weighed. Control groups got vehicle instead of glucocorticosteroid preparation and saline instead of Sephadex suspension so that lung weight due to non-drug-treated, Sephadex-induced edema and the normal lung weight could be determined.

[2] = test system: Sephadex induced lung edema (left lung lobe); experiment: Desired local antiinflammatory activity on airway mucosa (left lung lobe), Sephadex induced lung edema model, local instillation; type: in vivo, Sprague Dawley rats; settings: Rattus norvegicus; in liposomes; instilled into left lung lobe 2 h before Sephadex; dose to reduce the edema by 50%; lungs weighed 20 h after Sephadex; read-out: ED50 (left lung administration) Left lung lobe
Protocol: (§3) A) Test model for desired local antiinflammatory activity on airway mucosa (left lung lobe).
(§4) Sprague Dawley rats (250 g) were slightly anaesthetized. with Ephrane and the glucocorticosteroid test preparation (in liposomes suspended in saline) in a volume of 0.5 ml/kg was instilled into the left lung lobe only. Two hours later a suspension of Sephadex (5 mg/kg in a volume of 1 ml/kg) was instilled in the trachea well above the bifurcation so that the suspension reached both the left and right lung lobes. Twenty hours later the rats were killed and the left lung lobes dissected out and weighed. Control groups got vehicle instead of glucocorticosteroid preparation and saline instead of Sephadex suspension so that lung weight due to non-drug-treated, Sephadex-induced edema and the normal lung weight could be determined.

[3] = test system: Sephadex induced lung edema; experiment: Lung selectivity: ratio of oral and local ED50 in the Sephadex induced lung edema model; type: in vivo, Sprague Dawley rats; settings: in liposomes; ED50 p.o. / ED50 left lung lobe
Excerpt: A considerable fraction of inhaled GCS is deposited in the pharynx and is subsequently swallowed, ending up in the gut. This fraction contributes to the unwanted side effects of the steroid since it is acting outside the area (the lung) intended for treatment. Therefore, it is favourable to use a GCS with high local anti-inflammatory activity in the lung but low GCS-induced effects after oral administration. Studies were therefore done in order to determine the GCS-induced effects after local application in the lung as well as after peroral administration, and the differentiation between glucocorticosteroid actions in the treated lung region and outside this area was tested in the following way.
as §3, §4, §1, §2

[4] = cited from earlier work; for unwanted GCS actions within the general circulation: highest of the recommended doses for inhalation

CCCCCCCCCCCCCCCC(=O)OCC(=O)[C@@]1(O)[C@H](C)C[C@H]2[C@@H]3C[C@H](F)C4=CC(=O)C=C[C@]4(C)[C@@]3(F)[C@@H](O)C[C@@]21C [Flumethasone-21-palmitate]
ED50 [1]: 0.018 µmol/kg | ED50 [2]: 0.0022 µmol/kg | Ratio oral/local administration (ED50) [3]: 8

CCCCCCCCCCCCCCCC(=O)OCC(=O)[C@@]12O[C@H](CCC)O[C@@H]1C[C@H]1[C@@H]3C[C@H](F)C4=CC(=O)C=C[C@]4(C)[C@@]3(F)[C@@H](O)C[C@@]12C [Example 6, (22R)-16α,17α-Butylidenedioxy-6α,9α-difluoro-11β-hydroxy-21-palmitoyloxypregna-1,4-diene-3,20-dione]
ED50 [2]: 0.0018 µmol/kg

CCCCCCCCCCCCCCCC(=O)OCC(=O)[C@@]12OC(CCC)O[C@@H]1C[C@H]1[C@@H]3CCC4=CC(=O)C=C[C@]4(C)[C@H]3[C@@H](O)C[C@@]12C (stereo partly drawn) [Budesonide-21-palmitate (RS), Budesonide-21-palmitate]
ED50 [1]: 1.52 µmol/kg | ED50 [2]: 0.023 µmol/kg | Ratio oral/local administration (ED50) [3]: 66

CCCCCCCCCCCCCCCC(=O)OCC(=O)[C@@]12O[C@@H](CCC)O[C@@H]1C[C@H]1[C@@H]3C[C@H](F)C4=CC(=O)CC[C@]4(C)[C@@]3(F)[C@@H](O)C[C@@]12C [Example 3, (22S)-16α,17α-Butylidenedioxy-6α,9α-difluoro-11β-hydroxy-21-palmitoyloxypregn-4-ene-3,20-dione]
ED50 [1]: 0.554 µmol/kg | ED50 [2]: 0.0035 µmol/kg | Ratio oral/local administration (ED50) [3]: 158

CCCC1O[C@@H]2C[C@H]3[C@@H]4CCC5=CC(=O)C=C[C@]5(C)[C@H]4[C@@H](O)C[C@]3(C)[C@]2(C(=O)CO)O1 (some centres unmarked) [budesonide]
unwanted GCS actions within the general circulation [4]: unwanted GCS actions within the general circulation have been reported | safety margin ([4]; inhaled, clinical use): rather narrow safety margin

CCCCCCCCCCCCCCCC(=O)OCC(=O)[C@@]12O[C@@H](CCC)O[C@@H]1C[C@H]1[C@@H]3C[C@H](F)C4=CC(=O)C=C[C@]4(C)[C@@]3(F)[C@@H](O)C[C@@]12C [Example 7, (22S)-16α,17α-Butylidenedioxy-6α,9α-difluoro-11β-hydroxy-21-palmitoyloxypregna-1,4-diene-3,20-dione]
ED50 [1]: 0.568 µmol/kg | ED50 [2]: 0.0023 µmol/kg | Ratio oral/local administration (ED50) [3]: 247

CCCCCCCCCCCCCCCC(=O)OCC(=O)[C@@]12O[C@H](CCC)O[C@@H]1C[C@H]1[C@@H]3C[C@H](F)C4=CC(=O)CC[C@]4(C)[C@@]3(F)[C@@H](O)C[C@@]12C [Example 1, (22R)-16α,17α-Butylidenedioxy-6α,9α-difluoro-11β-hydroxy-21-palmitoyloxypregn-4-ene-3,20-dione]
ED50 [1]: 0.839 µmol/kg | ED50 [2]: 0.0015 µmol/kg | Ratio oral/local administration (ED50) [3]: 559

CCC(=O)OCC(=O)[C@@]1(OC(=O)CC)[C@@H](C)C[C@H]2[C@@H]3CCC4=CC(=O)C=C[C@]4(C)[C@@]3(Cl)[C@@H](O)C[C@@]21C [beclomethasone 17α,21-dipropionate]
unwanted GCS actions within the general circulation [4]: unwanted GCS actions within the general circulation have been reported | safety margin ([4]; in vivo): rather narrow safety margin
